In paper PMC7385626 (Scientific Reports, 2020):

What was measured:
[1] = system: CT-DNA; assay: Ethidium bromide exchange (fluorescence quenching) study; format: binding, calf
Procedure: Fig. S13. The emission spectra of EB-bound (a) DNA solutions in the absence and presence of increasing concentrations of 2, 3, and 4 25 μM (b), 50 μM (c), and 75 μM (d). [EB]=10.0 μM (e), [DNA] 50.0 μM. […] (µM) for determining KSV.

[2] = system: S. aureus ATCC29213; assay: Serial microdilution assay (MIC); format: cell-based, Staphylococcus aureus
Procedure: (§1) […]. […] Four types of gram-positive bacterial strains (St. pyogenez, B. subtilis, B. cereus, S. aureus) and five types of the gram-negative (S. enteridis, E. aerogenes, P. aeruginosa, E. coli, and S. gallinarum) were sensitive to 4 and 1. […]. The minimal inhibitory concentration value was studied for the microorganism cells, which evaluated to sensitive the substances and they tested in the disc-diffusion method. Inoculate of microorganism was prepared utilizing 12 h suspensions and broth cultures were adjusted to 0.5 McFarland turbidity standard. Each substance was dissolved in 10% dimethyl sulfoxide which diluted to the highest concentration (1000 µg/mL) for testing. […]. Also, prepared suspensions for standard microorganisms were added to each dilution in a 1:1 ratio. Growth act of microorganism cells was determined visually after incubation at 36 °C. The minimum concentration was no visible growth which was taken as the MIC.

[3] = system: B. subtilis ATCC6633; assay: Serial microdilution assay (MIC); format: cell-based, Bacillus Subtilis
Procedure: as §1

[4] = system: B. cereus DSM 4312; assay: Serial microdilution assay (MIC); format: cell-based, Bacillus Cereus
Procedure: as §1

[5] = system: St. pyogenez ATCC176; assay: Serial microdilution assay (MIC); format: cell-based, Steptococcus Pyogerez
Procedure: as §1

[6] = system: E. coli 111; assay: Serial microdilution assay (MIC); format: cell-based, Escherichia coli
Procedure: as §1

[7] = system: P. aeruginosa ATCC9027; assay: Serial microdilution assay (MIC); format: cell-based, Pseudomonas Aureginosa
Procedure: as §1

[8] = system: E. aerogenes ATCC2924; assay: Serial microdilution assay (MIC); format: cell-based, Enterobacter Aerogenes
Procedure: as §1

[9] = system: S. gallinarum; assay: Serial microdilution assay (MIC); format: cell-based, Salmonella Gallinarum
Procedure: as §1

[10] = system: S. enteridis ATCC13076; assay: Serial microdilution assay (MIC); format: cell-based, Salmonella Enteritidis
Procedure: as §1

[11] = system: bacterial strains (four gram-positive, five gram-negative); assay: Disc diffusion assay, range over the bacterial strains; format: cell-based
Procedure: […]. […] Four types of gram-positive bacterial strains (St. pyogenez, B. subtilis, B. cereus, S. aureus) and five types of the gram-negative (S. enteridis, E. aerogenes, P. aeruginosa, E. coli, and S. gallinarum) were sensitive to 4 and 1. […]. In this study, 10 microbial cultures of this part, belonging to ten types of bacterial were used. The culture was grown in Mueller–Hinton Broth (Merck) for all the bacterial strains at 36 °C. Antimicrobial test was carried out by using disc-diffusion assay utilizing 100 µL of suspension with 10^8 CFU/mL of bacteria and 10^6 CFU/mL of yeast spread on Nutrient Agar and Potato Dextrose Agar, respectively. Also, the blank disc (Oxoid = 6 mm in diameter) was impregnated with 20 µL of each substance (105 µg/disc) and placed on the inoculated agar. Negative controls ([…]) were prepared using the same solvent (water) employed to dissolve each substance. […]. The inoculated plate was incubated at 36 °C for clinical bacterial strains. Antimicrobial activities were evaluated by obtaining the zone of inhibitory effect against the test organisms.

[12] = system: bacterial strains (four gram-positive, five gram-negative); assay: Serial microdilution assay (MIC), range over the bacterial strains; format: cell-based
Procedure: as §1

Row | Substance | KSV (Stern–Volmer quenching constant, EB-DNA) [1] | Minimum-inhibitory concentrations (MIC), S. aureus ATCC29213 [2] | Minimum-inhibitory concentrations (MIC), B. subtilis ATCC6633 [3] | Minimum-inhibitory concentrations (MIC), B. cereus DSM 4312 [4] | Minimum-inhibitory concentrations (MIC), St. pyogenez ATCC176 [5] | Minimum-inhibitory concentrations (MIC), E. coli 111 [6] | Minimum-inhibitory concentrations (MIC), P. aeruginosa ATCC9027 [7] | Minimum-inhibitory concentrations (MIC), E. aerogenes ATCC2924 [8] | Minimum-inhibitory concentrations (MIC), S. gallinarum [9] | Minimum-inhibitory concentrations (MIC), S. enteridis ATCC13076 [10] | inhibition zones, range over the bacterial strains [11] | MIC, joint range for 4 and 1 over the strains [12] | MIC, range over the bacterial strains [12]
1 | [Cd(N-bishydeten)]4[Ag(CN)2]8[Ag(CN)]2 [Complex 4] | 1.1 ± 0.12 × 10^3 M^−1 | 62.50 ± 0.0 µg/mL | 31.25 ± 0.0 µg/mL | 62.50 ± 18.04 µg/mL | 31.25 ± 9.02 µg/mL | 31.25 ± 0.0 µg/mL | 62.50 ± 0.0 µg/mL | 125 ± 53.40 µg/mL | 125 ± 0.0 µg/mL | 62.50 ± 0.14 µg/mL | 25–37 mm | 15.62 to 125 µg/mL | 31.25 to 125 µg/mL
2 | [Cu(N-bishydeten)Ag3(CN)5] [Complex 2] | 5.0 ± 0.32 × 10^3 M^−1 | – | – | – | – | – | – | – | – | – | – | – | –
3 | [Zn(N-bishydeten)Ag3(CN)5] [Complex 3] | 13.7 ± 0.41 × 10^3 M^−1 | – | – | – | – | – | – | – | – | – | – | – | –
